Results taken from US9944607B2, “Thiohydantoin derivatives and uses thereof” (Whitehead Institute for Biomedical Research, priority 2012, dated 2018).
pIC50: −log10 of the molar value. Like-named read-outs stand apart in the source and are kept apart here.

Legend:
[1] = system: mitochondrial membrane potential of S. cerevisiae; test: Secondary mitochondrial disruption assay (JC-1 dye, flow cytometry); format: cell-based, Saccharomyces cerevisiae; conditions: living S. cerevisiae treated with 1 μM compound; AIDs 624062, 624068
Experimental: Procedures • Use a Thermo Combi nL to dispense 20 μL/well of assay media into all wells. • Add 2 μL of Amphotericin B to control wells. • Pin 100 nL of test compound from compound plates into assay plates using a CyBi-Well pin tool. • Dispense 20 μL/well of culture into the assay media in all wells. • Incubate the plates in a humidified (90% humidity) Liconic incubator at 37° C. without agitation for 48 hours. • Shake plates briefly. • Read OD600 of wells on a standard plate reader as measure of relative fungal growth. Envision (Perkin Elmer) plate reader settings: Ex Photometric 600, Top read. 4.5. Secondary Mitochondrial Disruption Assay (AID No. 624062 and 624068)
The fluorescent dye JC-1 was used to quantify the ability of compounds to disrupt the mitochondrial membrane potential of fungi. Mitochondrial membrane depolarization is indicated by a decrease in the yellow/green fluorescence intensity ratio. This is a non-gating, binning assay that establishes whether inhibition of fungal growth in glycerol results from direct compromise of mitochondrial function or alternative components of fungal respiratory metabolism. Probes that disrupt mitochondrial function as well as those that perturb other metabolic components are desirable. […]
Additionally, direct impairment of mitochondrial function in C. glabrata and S. cerevisiae was assessed using a fluorescence assay.

[2] = system: Candida albicans CaCi-2; test: Colony counts over time, C. albicans CaCi-2 in RPMI (FIG. 15); format: cell-based; conditions: colonies counted after 24 and 48 hours
Experimental: […] The CaCi-2 strain was inoculated into RPMI media at 10^3 CFU/mL in the presence or absence of 5 μM I-B-4 (ML316) and 32 ug/mL fluconazole. Colonies were plated from the cultures after 24 and 48 hours and counted.

[3] = system: Candida albicans CaCi-2; test: Broth microdilution growth inhibition of C. albicans CaCi-2 in presence or absence of fluconazole; format: cell-based; conditions: CACI2, RPMI media
Experimental: Growth inhibition of I-B-4 (ML316) against Candida albicans CaCi-2 in the presence or absence of fluconazole was assessed using the broth microdilution method with RPMI media.

[4] = system: Candida albicans strain SC5314; test: Colony counts over time, C. albicans SC5314 in RPMI (FIG. 14); format: cell-based; conditions: colonies counted after 24 and 48 hours
Experimental: Compound I-B-4 (ML316) was studied in fluconazole-sensitive Candida albicans strain SC5314. The SC5314 strain was inoculated into RPMI media at 10^3 CFU/mL in the presence or absence of 5 μM I-B-4 (ML316) and 32 ug/mL fluconazole. Colonies were plated from the cultures after 24 and 48 hours and counted.

[5] = PBS stability; format: physicochemical; conditions: PBS pH 7.4, 23° C.
Experimental: Stability was determined in the presence of PBS pH 7.4 with 0.1% DMSO. […] One plate was removed at each time point (0, 2, 4, 8, 24, and 48 hours). […] Additionally, to the remaining material at each time point, acetonitrile was added to force dissolution of compound (to test for recovery of compound). An aliquot of this was also analyzed by UPLC-MS.

[6] = biological target: bovine bc1 complex (Bos taurus, UniProt P00157); conditions: read-out: IC50, isolated bovine bc1 complex; studies by Trumpower et al.; cited from earlier work
[7] = system: HeLa cells; conditions: Hayakawa et al. 1971, cited from earlier work
[8] = biological target: S. cerevisiae cytochrome bc1 complex (Saccharomyces cerevisiae, UniProt P00163); conditions: cited from earlier work
[9] = 5 μM I-B-4 and 32 ug/mL fluconazole

CCOC(=O)N1C(=O)C2(CCCCC2)N(c2ccc(F)cc2)C1=S [CID 56604860, Ethyl 1-(4-fluorophenyl)-4-oxo-2-thioxo-1,3-diazaspiro[4.5]decane-3-carboxylate]
Depolarization of the mitochondrial membrane (JC-1 dye) [1]: depolarization of the mitochondrial membrane does not occur | Cytotoxicity to fluconazole-resistant C. albicans CaCi-2, compound alone ([2]; 5 μM I-B-4): cytotoxic | Cytotoxicity to fluconazole-resistant C. albicans CaCi-2, combination with fluconazole (FCZ) [2, 9]: cytotoxic | pIC50 ([3]; absence of fluconazole (FIG. 8), read-out: IC50 against C. albicans CaCi-2 growth, compound alone): 6.92 | pIC50 ([3]; presence of fluconazole (FIG. 8), read-out: IC50 against C. albicans CaCi-2 growth, with FCZ): 8.00 | Cytotoxicity to fluconazole-sensitive C. albicans SC5314, compound alone ([4]; 5 μM I-B-4): cytotoxic | Cytotoxicity to fluconazole-sensitive C. albicans SC5314, combination with fluconazole (FCZ) [4, 9]: cytotoxic | Stability in PBS solution, % remaining after a 48-hour incubation [5]: > 60%

C/C=C/C1[C@H]2C[C@@H](C)CC[C@@H]2C(C)=C[C@H]1C(=O)c1c(O)c(-c2ccc(O)cc2)c[nH]c1=O (stereo partly shown) [ilicicolin H, reference compound]
pIC50 [6]: 6.70 | MIC against HeLa cells [7]: 2 µg/mL | MIC against HeLa cells ([7]; same value converted): 4.6 µM | Selectivity for S. cerevisiae (fungal) bc1 complex over bovine bc1 complex ([8]; biochemical assays with purified proteins, literature): 100 fold | pIC50 ([8]; read-out: IC50, purified S. cerevisiae cytochrome bc1 complex, studies by Trumpower et al.): 8.52
